From patent US20260042801A1, “COMPOSITIONS AND METHODS FOR DYE-BOUND CYCLIZED PEPTIDES FOR MEDICAL USE” (The Texas A&M University System, priority 2022, published 2026)

Legend:
[1] = system: primary adult cortical neurons; assay: Primary adult cortical neuron culture: survival and neurite outgrowth; assay type: cell-based, mouse; settings: adult neurons from 6-month-old mice, 2 days with 5c(i)
Method: FIGS. 3A-3C: 5c(i) augments neuritogenesis and neuron survival. Primary adult cortical neurons from 6-month-old female mice were treated with 5c(i) for 2 days. 5c(i) was added at the time of cell plating. Cells were fixed 2 days after cell plating. 3A) Graph represents mean±SEM of percent change in neurite outgrowth per cell and number of surviving neurons. Representative images of 3B) Vehicle and 3C) 5000 nM 5c(i) treated groups. Linear regression was conducted to determine statistical significance. […] Scale bar=50 μm.
For all cell culture experiments, primary neural cells were extracted from the cortices of […] mice. The extraction, purification, and separation of neurons and glia was conducted as previously before^58 covered under patent application WO2022266431, incorporated by reference herein in its entirety. Briefly, after euthanization of mice, the brains were microdissected and placed in papain filled GENTLEMACS™ (tissue dissector) C Tubes followed by cell dissociation using the GENTLEMACS™ (tissue dissector) Octo Dissociator with Heaters with heating cuffs using the GENTLEMACS™ (tissue dissector) Program 37C_ABDK_01 protocol. After protocol completion, the contents were strained through a 70 μm cell strainer, debris and red blood cells were removed, and the remaining solution was labeled with glia specific antibodies. […]

[2] = Blood-brain and blood-spinal cord barrier penetration after IP administration; assay type: in vivo; settings: uninjured mouse, IP 60 mg/kg, 1 hour, intrinsic fluorescence
Method: FIG. 6: 5c(i) penetrates the blood-brain and -spinal cord barriers. 4-month-old uninjured female mouse was IP administered 60 mg/kg 5c(i). The mouse was euthanized 1 hour after 5c(i) administration and perfused with PFA. The spinal cord was dissected and sectioned sagittal at 25 μm and stained with NeuN and DAPI. The brain was dissected and sectioned coronal at 50 μm and stained with GFAP and DAPI. 5c(i) was identified through its intrinsic fluorescence. Scale bar=100 μm.
This is highly significant as most drugs cannot penetrate the central nervous system (CNS), resulting in very costly late-stage failures in CNS drug development^94. 5c(i) therefore in specific embodiments can cross the BBB and target the brain, such as through IP administration, for indications relating to brain function, such as AD and stroke. 5c(i) has even higher potential for penetrating the CNS after SCI when permeability is increased^95-97.

## C-DIRG-C BODIPY® (fluorescent dye) [5c(i)]
[1]
  increase in neurite outgrowth: 42%
  increase in neuron survival: 94%
[2]
  penetration of blood-brain barrier (BBB): easily penetrate
  penetration of blood-spinal cord barrier (BSCB): easily penetrate
